Experimental data as given in patent US20020035061A1, “COMPOSITIONS AND METHODS FOR TREATING INFECTIONS USING CATIONIC PEPTIDES ALONE OR IN COMBINATION WITH ANTIBIOTICS” (priority 1996, published 2002).

Experiments:
Type in all cases: cell-based
[1] = test system: A. calcoaceticus; settings: A. calcoaceticus strain AC002
[2] = test system: E. cloacae; settings: E. cloacae strain ECL007
[3] = test system: E. coli; settings: E. coli strain ECO005
[4] = test system: E. faecalis; settings: E. faecalis strain EFS002
[5] = test system: E. faecium; settings: E. faecium strain EFM002
[6] = test system: H. influenzae; test: Agarose dilution assay (MIC); settings: H. influenzae strain HIN002
[7] = test system: K. pneumoniae; settings: K. pneumoniae strain KP001
[8] = test system: P. aeruginosa; settings: P. aeruginosa strain PA004
[9] = test system: P. mirabilis; test: Agarose dilution assay (MIC); settings: P. mirabilis strain PM002
[10] = test system: S. aureus; settings: S. aureus strain SA010
[11] = test system: S. epidermidis; settings: S. epidermidis strain SE010
[12] = test system: S. maltophilia; settings: S. maltophilia strain SMA002
[13] = test system: S. marcescens; settings: S. marcescens strain SMS003
[14] = test system: S. pneumoniae; test: Agarose dilution assay (MIC)
[15] = test system: S. pyogenes; test: Agarose dilution assay (MIC); settings: S. pyogenes strain SPY005
[16] = test system: bacterial isolates; test: microbe, parasite or virus in culture
[17] = test system: microorganisms with acquired resistance; test: microbe, parasite or virus in culture
[18] = A. baumannii ABI001, Tobramycin section
[19] = A. calcoaceticus 3, Piperacillin section
[20] = P. aeruginosa 15, Piperacillin section
[21] = P. aeruginosa PA008, Tobramycin section
[22] = P. aeruginosa PA025, Tobramycin section
[23] = S. marcescens SB1, Piperacillin section
[24] = peptide + Piperacillin, A. calcoaceticus 3
[25] = peptide + Piperacillin, P. aeruginosa 15
[26] = peptide + Piperacillin, S. marcescens SB1
[27] = peptide + Tobramycin, A. baumannii ABI001
[28] = peptide + Tobramycin, P. aeruginosa PA008
[29] = peptide + Tobramycin, P. aeruginosa PA025

Work on ILRRVJPWWPWRRR [MBI 11B9CN] yielded an MIC [1] of 4 µg/mL, an MIC [2] greater than 128 µg/mL and an MIC [3] of 8 µg/mL. The MIC [4] was 8 µg/mL, the MIC [5] was 4 µg/mL and the MIC [6] was greater than 128 µg/mL. For the same sequence, the MIC [7] was 32 µg/mL, the MIC [8] was 128 µg/mL and the MIC [9] was greater than 128 µg/mL. For the same sequence, the MIC [10] was 4 µg/mL, the MIC [11] was 2 µg/mL and the MIC [12] was 32 µg/mL. The MIC [13] was greater than 128 µg/mL, the MIC ([14]; S. pneumoniae strain SBSPN2) was greater than 128 µg/mL and the MIC ([14]; S. pneumoniae strain SPN044) was greater than 128 µg/mL. For the same sequence, the MIC [15] was 16 µg/mL, the “Peptide MIC + Tobramycin” value ([16]; A. baumannii ABI001) was 8 µg/mL and the “Tobramycin MIC + Peptide” value ([16]; A. baumannii ABI001) was 4 µg/mL. For the same sequence, the “Peptide MIC Alone” value [16, 18] was 32 µg/mL, the “Peptide MIC + Piperacillin” value ([16]; A. calcoaceticus 3) was 2 µg/mL and the “Piperacillin MIC + Peptide” value ([16]; A. calcoaceticus 3) was 32 µg/mL. The “Peptide MIC Alone” value [16, 19] was 32 µg/mL, the “Peptide MIC + Tobramycin” value ([16]; B. cepacia BC002) was 32 µg/mL and the “Tobramycin MIC + Peptide” value ([16]; B. cepacia BC002) was 64 µg/mL. For the same sequence, the “Peptide MIC Alone” value ([16]; B. cepacia BC002, Tobramycin section) was greater than 128 µg/mL, the “Peptide MIC + Piperacillin” value ([16]; H. influenzae 3) was 0.125 µg/mL and the “Piperacillin MIC + Peptide” value ([16]; H. influenzae 3) was 0.25 µg/mL. The “Peptide MIC Alone” value ([16]; H. influenzae 3, Piperacillin section) was greater than 128 µg/mL, the “Peptide MIC + Piperacillin” value ([16]; H. influenzae SB1) was 0.125 µg/mL and the “Piperacillin MIC + Peptide” value ([16]; H. influenzae SB1) was 0.25 µg/mL. The “Peptide MIC Alone” value ([16]; H. influenzae SB1, Piperacillin section) was greater than 128 µg/mL, the “Peptide MIC + Piperacillin” value ([16]; P. aeruginosa 15) was 64 µg/mL and the “Piperacillin MIC + Peptide” value ([16]; P. aeruginosa 15) was 64 µg/mL. The “Peptide MIC Alone” value [16, 20] was greater than 128 µg/mL, the “Peptide MIC + Piperacillin” value ([16]; P. aeruginosa 23) was 0.5 µg/mL and the “Piperacillin MIC + Peptide” value ([16]; P. aeruginosa 23) was 16 µg/mL. For the same sequence, the “Peptide MIC Alone” value ([16]; P. aeruginosa 23, Piperacillin section) was 64 µg/mL, the “Peptide MIC + Tobramycin” value ([16]; P. aeruginosa PA008) was 64 µg/mL and the “Tobramycin MIC + Peptide” value ([16]; P. aeruginosa PA008) was 0.125 µg/mL. The “Peptide MIC Alone” value [16, 21] was 128 µg/mL, the “Peptide MIC + Tobramycin” value ([16]; P. aeruginosa PA025) was 64 µg/mL and the “Tobramycin MIC + Peptide” value ([16]; P. aeruginosa PA025) was 2 µg/mL. The “Peptide MIC Alone” value [16, 22] was 128 µg/mL, the “Peptide MIC + Piperacillin” value ([16]; S. aureus 19 MRSA) was 1 µg/mL and the “Piperacillin MIC + Peptide” value ([16]; S. aureus 19 MRSA) was 16 µg/mL. The “Peptide MIC Alone” value ([16]; S. aureus 19 MRSA, Piperacillin section) was 4 µg/mL, the “Peptide MIC + Piperacillin” value ([16]; S. aureus SB2MRSA) was 1 µg/mL and the “Piperacillin MIC + Peptide” value ([16]; S. aureus SB2MRSA) was 8 µg/mL. For the same sequence, the “Peptide MIC Alone” value ([16]; S. aureus SB2MRSA, Piperacillin section) was 2 µg/mL, the “Peptide MIC + Piperacillin” value ([16]; S. maltophilia 5) was 64 µg/mL and the “Piperacillin MIC + Peptide” value ([16]; S. maltophilia 5) was 64 µg/mL. The “Peptide MIC Alone” value ([16]; S. maltophilia 5, Piperacillin section) was greater than 128 µg/mL, the “Peptide MIC + Piperacillin” value ([16]; S. maltophilia 13) was 32 µg/mL and the “Piperacillin MIC + Peptide” value ([16]; S. maltophilia 13) was 64 µg/mL. The “Peptide MIC Alone” value ([16]; S. maltophilia 13, Piperacillin section) was greater than 128 µg/mL, the “Peptide MIC + Tobramycin” value ([16]; S. maltophilia SMA029) was 16 µg/mL and the “Tobramycin MIC + Peptide” value ([16]; S. maltophilia SMA029) was 4 µg/mL. For the same sequence, the “Peptide MIC Alone” value ([16]; S. maltophilia SMA029, Tobramycin section) was greater than 128 µg/mL, the “Peptide MIC + Piperacillin” value ([16]; S. marcescens SB1) was 2 µg/mL and the “Piperacillin MIC + Peptide” value ([16]; S. marcescens SB1) was 16 µg/mL. The “Peptide MIC Alone” value [16, 23] was greater than 128 µg/mL, the FIC [16, 24] was 0.56 and the FIC ([16]; peptide + Piperacillin, H. influenzae 3) was 0.50. It also gave an FIC ([16]; peptide + Piperacillin, H. influenzae SB1) of 0.50, an FIC [16, 25] of 0.50 and an FIC ([16]; peptide + Piperacillin, P. aeruginosa 23) of 0.13. The FIC ([16]; peptide + Piperacillin, S. aureus 19 MRSA) was 0.38, the FIC ([16]; peptide + Piperacillin, S. aureus SB2MRSA) was 0.56 and the FIC ([16]; peptide + Piperacillin, S. maltophilia 5) was 0.50. For the same sequence, the FIC ([16]; peptide + Piperacillin, S. maltophilia 13) was 0.38, the FIC [16, 26] was 0.26 and the FIC [16, 27] was 0.50. The FIC ([16]; peptide + Tobramycin, B. cepacia BC002) was 0.38, the FIC [16, 28] was 0.50 and the FIC [16, 29] was 0.56. For the same sequence, the FIC ([16]; peptide + Tobramycin, S. maltophilia SMA029) was 0.13, the “Peptide MIC + Tobramycin” value ([17]; A. baumannii ABI001) was 8 µg/mL and the “Tobramycin MIC + Peptide” value ([17]; A. baumannii ABI001) was 4 µg/mL. The “Peptide MIC Alone” value [17, 18] was 32 µg/mL, the “Peptide MIC + Piperacillin” value ([17]; A. calcoaceticus 3) was 16 µg/mL and the “Piperacillin MIC + Peptide” value ([17]; A. calcoaceticus 3) was 16 µg/mL. For the same sequence, the “Peptide MIC Alone” value [17, 19] was 32 µg/mL, the “Peptide MIC + Tobramycin” value ([17]; E. coli EC0006) was 8 µg/mL and the “Tobramycin MIC + Peptide” value ([17]; E. coli EC0006) was 4 µg/mL. For the same sequence, the “Peptide MIC Alone” value ([17]; E. coli EC0006, Tobramycin section) was 32 µg/mL, the “Peptide MIC + Piperacillin” value ([17]; P. aeruginosa 12) was 64 µg/mL and the “Piperacillin MIC + Peptide” value ([17]; P. aeruginosa 12) was 64 µg/mL. The “Peptide MIC Alone” value ([17]; P. aeruginosa 12, Piperacillin section) was 128 µg/mL, the “Peptide MIC + Piperacillin” value ([17]; P. aeruginosa 15) was 64 µg/mL and the “Piperacillin MIC + Peptide” value ([17]; P. aeruginosa 15) was 64 µg/mL. For the same sequence, the “Peptide MIC Alone” value [17, 20] was greater than 128 µg/mL, the “Peptide MIC + Tobramycin” value ([17]; P. aeruginosa PA008) was 64 µg/mL and the “Tobramycin MIC + Peptide” value ([17]; P. aeruginosa PA008) was 0.125 µg/mL. The “Peptide MIC Alone” value [17, 21] was 128 µg/mL, the “Peptide MIC + Tobramycin” value ([17]; P. aeruginosa PA025) was 64 µg/mL and the “Tobramycin MIC + Peptide” value ([17]; P. aeruginosa PA025) was 2 µg/mL. For the same sequence, the “Peptide MIC Alone” value [17, 22] was 128 µg/mL, the “Peptide MIC + Piperacillin” value ([17]; S. maltophilia 2) was 16 µg/mL and the “Piperacillin MIC + Peptide” value ([17]; S. maltophilia 2) was 16 µg/mL. The “Peptide MIC Alone” value ([17]; S. maltophilia 2, Piperacillin section) was 32 µg/mL, the “Peptide MIC + Tobramycin” value ([17]; S. maltophilia SMA027) was 32 µg/mL and the “Tobramycin MIC + Peptide” value ([17]; S. maltophilia SMA027) was 4 µg/mL. For the same sequence, the “Peptide MIC Alone” value ([17]; S. maltophilia SMA027, Tobramycin section) was greater than 128 µg/mL, the “Peptide MIC + Tobramycin” value ([17]; S. maltophilia SMA031) was 32 µg/mL and the “Tobramycin MIC + Peptide” value ([17]; S. maltophilia SMA031) was 4 µg/mL. For the same sequence, the “Peptide MIC Alone” value ([17]; S. maltophilia SMA031, Tobramycin section) was greater than 128 µg/mL, the “Peptide MIC + Piperacillin” value ([17]; S. marcescens SB1) was 2 µg/mL and the “Piperacillin MIC + Peptide” value ([17]; S. marcescens SB1) was 16 µg/mL. For the same sequence, the “Peptide MIC Alone” value [17, 23] was greater than 128 µg/mL, the FIC [17, 24] was 0.75 and the FIC ([17]; peptide + Piperacillin, P. aeruginosa 12) was 0.75. For the same sequence, the FIC [17, 25] was 0.50, the FIC ([17]; peptide + Piperacillin, S. maltophilia 2) was 0.75 and the FIC [17, 26] was 0.26. It also gave an FIC [17, 27] of 0.50, an FIC ([17]; peptide + Tobramycin, E. coli EC0006) of 0.75 and an FIC [17, 28] of 0.50. It also gave an FIC [17, 29] of 0.56, an FIC ([17]; peptide + Tobramycin, S. maltophilia SMA027) of 0.63 and an FIC ([17]; peptide + Tobramycin, S. maltophilia SMA031) of 0.19.
